Measured values: ChEMBL document CHEMBL5360565, “Discovery of novel arylpiperazine-based DA/5-HT modulators as potential antipsychotic agents - Design, synthesis, structural studies and pharmacological profiling” (Eur J Med Chem, 2023)

Test: in vitro
Conditions: PAMPA, pH 7.4

SMILES	Papp at 5 h [×10⁻⁶ cm/s]
Cn1c(=O)c2c(ncn2C)n(C)c1=O [CAFFEINE]	9.13
CCN1CCCC1CNC(=O)c1cc(S(N)(=O)=O)ccc1OC (configuration not stated) [SULPIRIDE]	0.006
